# Activity calls are given as the source filed them. The calls are words filed in the database; no cut-off is given here.
# What was measured:
# [1] = biological target: T1, Melanin-concentrating hormone receptor 2 (Homo sapiens, UniProt Q969V1); test: Antagonist activity at human MCHR2 receptor expressed in CHO cells assessed as inhibition of MCH-stimulated Ca2+ flux preincubated for 10 mins prior to MCH-stimulation by FLIPR assay; type: functional, cell-based
# [2] = Clearance in rat at 0.5 mg/kg, iv; type: ADME, organism-based; design: dose 0.5 mg/kg, route intravenous; conditions: in vivo
# [3] = Mean residence time in rat at 0.5 mg/kg, iv; type: ADME, organism-based; design: dose 0.5 mg/kg, route intravenous; conditions: in vivo
# [4] = Oral bioavailability in rat at 2 mg/kg; type: ADME, organism-based; conditions: in vivo
# [5] = biological target: T1, Melanin-concentrating hormone receptor 2; test: Displacement of [3H]N-(1'-((9-ethyl-9H-carbazol-3-yl)methyl)-2,3-dihydrospiro[indene-1,4'-piperidine]-3-yl)acetamide from human MCHR2 expressed in HEK293 cells after 2 hrs; type: cell-based
# [6] = biological target: T2, Melanin-concentrating hormone receptor 1 (Homo sapiens, UniProt Q99705); test: Binding affinity to MCHR1 up to 10 uM
# [7] = biological target: T2, Melanin-concentrating hormone receptor 1; test: Antagonist activity at MCHR1 up to 50 uM by FLIPR assay; type: functional
# [8] = biological target: D(2) dopamine receptor (Homo sapiens, UniProt P14416); test: Inhibition of dopamine D2 receptor
# [9] = biological target: Sodium-dependent serotonin transporter (Homo sapiens, UniProt P31645); test: Inhibition of serotonin transporter
# [10] = Clearance in Beagle dog; type: ADME, organism-based, Canis lupus familiaris; conditions: in vivo
# [11] = Mean residence time in Beagle dog; type: ADME, organism-based, Canis lupus familiaris; conditions: in vivo
# [12] = Oral bioavailability in Beagle dog at 2 mg/kg; type: ADME, organism-based, Canis lupus familiaris; conditions: in vivo
# [13] = Clearance in rhesus monkey; type: ADME, organism-based, Macaca mulatta; conditions: in vivo
# [14] = Mean residence time in rhesus monkey; type: ADME, organism-based, Macaca mulatta; conditions: in vivo
# [15] = Oral bioavailability in rhesus monkey at 2 mg/kg; type: ADME, organism-based, Macaca mulatta; conditions: in vivo
# [16] = species: Homo sapiens; test: Selectivity ratio of IC50 for serotonin transporter to IC50 for human MCHR2 receptor
# [17] = species: Homo sapiens; test: Selectivity ratio of IC50 for dopamine D2 receptor to IC50 for human MCHR2 receptor
# [18] = biological target: Voltage-gated inwardly rectifying potassium channel KCNH2 (Homo sapiens, UniProt Q12809); test: Inhibition of human ERG by rubidium [86Rb] efflux assay
# [19] = biological target: T2, Melanin-concentrating hormone receptor 1; test: Antagonist activity at MCHR1 by FLIPR assay; type: functional
# T2 sequence (Q99705 whole entry): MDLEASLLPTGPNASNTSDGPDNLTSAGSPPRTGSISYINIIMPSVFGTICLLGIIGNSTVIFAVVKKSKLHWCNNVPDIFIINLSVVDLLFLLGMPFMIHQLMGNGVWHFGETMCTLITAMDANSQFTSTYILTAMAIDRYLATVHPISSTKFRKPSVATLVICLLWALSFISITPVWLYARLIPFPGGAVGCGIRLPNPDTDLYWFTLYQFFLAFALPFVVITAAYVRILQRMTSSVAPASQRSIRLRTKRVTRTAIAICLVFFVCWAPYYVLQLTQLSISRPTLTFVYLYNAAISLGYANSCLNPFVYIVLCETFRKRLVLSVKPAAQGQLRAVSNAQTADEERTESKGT
# T1 sequence (Q969V1 whole entry): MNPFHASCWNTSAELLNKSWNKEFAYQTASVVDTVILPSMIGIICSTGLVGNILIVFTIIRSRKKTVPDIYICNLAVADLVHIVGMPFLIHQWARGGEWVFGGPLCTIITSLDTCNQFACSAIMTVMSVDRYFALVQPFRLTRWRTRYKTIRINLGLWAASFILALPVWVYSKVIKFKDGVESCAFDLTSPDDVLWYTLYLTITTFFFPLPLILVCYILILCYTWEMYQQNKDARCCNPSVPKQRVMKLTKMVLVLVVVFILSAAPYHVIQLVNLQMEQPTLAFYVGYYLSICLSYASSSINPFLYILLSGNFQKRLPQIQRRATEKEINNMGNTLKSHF
# Sequence of D(2) dopamine receptor (P14416 whole entry): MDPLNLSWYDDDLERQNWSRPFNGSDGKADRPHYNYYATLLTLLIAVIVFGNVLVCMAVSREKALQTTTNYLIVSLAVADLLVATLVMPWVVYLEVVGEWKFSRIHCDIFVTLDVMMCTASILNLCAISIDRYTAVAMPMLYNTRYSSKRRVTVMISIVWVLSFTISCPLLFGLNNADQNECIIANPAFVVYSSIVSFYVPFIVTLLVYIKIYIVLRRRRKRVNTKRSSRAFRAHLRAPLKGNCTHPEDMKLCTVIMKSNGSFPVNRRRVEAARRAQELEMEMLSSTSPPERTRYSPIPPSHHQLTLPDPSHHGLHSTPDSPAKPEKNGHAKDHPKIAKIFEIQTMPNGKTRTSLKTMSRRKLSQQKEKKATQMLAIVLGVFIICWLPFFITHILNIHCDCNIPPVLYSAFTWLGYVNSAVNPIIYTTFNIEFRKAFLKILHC
# Sequence of Sodium-dependent serotonin transporter (P31645 whole entry): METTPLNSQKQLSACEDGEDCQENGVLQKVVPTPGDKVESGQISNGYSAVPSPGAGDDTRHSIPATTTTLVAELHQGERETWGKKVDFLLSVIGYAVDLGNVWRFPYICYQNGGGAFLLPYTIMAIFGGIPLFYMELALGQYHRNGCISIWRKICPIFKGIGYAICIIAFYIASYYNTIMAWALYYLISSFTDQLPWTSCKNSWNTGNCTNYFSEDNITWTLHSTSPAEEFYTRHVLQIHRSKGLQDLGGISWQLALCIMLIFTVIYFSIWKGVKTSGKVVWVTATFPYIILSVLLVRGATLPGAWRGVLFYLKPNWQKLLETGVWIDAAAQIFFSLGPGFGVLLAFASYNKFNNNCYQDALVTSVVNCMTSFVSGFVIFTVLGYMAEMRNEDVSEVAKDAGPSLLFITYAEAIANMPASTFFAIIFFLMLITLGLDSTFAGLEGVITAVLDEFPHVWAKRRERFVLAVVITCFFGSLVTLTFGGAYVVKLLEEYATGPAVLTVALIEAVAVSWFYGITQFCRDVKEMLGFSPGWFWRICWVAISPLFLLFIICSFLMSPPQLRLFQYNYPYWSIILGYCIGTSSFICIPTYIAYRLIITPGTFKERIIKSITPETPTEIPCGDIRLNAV
# Sequence of Voltage-gated inwardly rectifying potassium channel KCNH2 (Q12809 whole entry): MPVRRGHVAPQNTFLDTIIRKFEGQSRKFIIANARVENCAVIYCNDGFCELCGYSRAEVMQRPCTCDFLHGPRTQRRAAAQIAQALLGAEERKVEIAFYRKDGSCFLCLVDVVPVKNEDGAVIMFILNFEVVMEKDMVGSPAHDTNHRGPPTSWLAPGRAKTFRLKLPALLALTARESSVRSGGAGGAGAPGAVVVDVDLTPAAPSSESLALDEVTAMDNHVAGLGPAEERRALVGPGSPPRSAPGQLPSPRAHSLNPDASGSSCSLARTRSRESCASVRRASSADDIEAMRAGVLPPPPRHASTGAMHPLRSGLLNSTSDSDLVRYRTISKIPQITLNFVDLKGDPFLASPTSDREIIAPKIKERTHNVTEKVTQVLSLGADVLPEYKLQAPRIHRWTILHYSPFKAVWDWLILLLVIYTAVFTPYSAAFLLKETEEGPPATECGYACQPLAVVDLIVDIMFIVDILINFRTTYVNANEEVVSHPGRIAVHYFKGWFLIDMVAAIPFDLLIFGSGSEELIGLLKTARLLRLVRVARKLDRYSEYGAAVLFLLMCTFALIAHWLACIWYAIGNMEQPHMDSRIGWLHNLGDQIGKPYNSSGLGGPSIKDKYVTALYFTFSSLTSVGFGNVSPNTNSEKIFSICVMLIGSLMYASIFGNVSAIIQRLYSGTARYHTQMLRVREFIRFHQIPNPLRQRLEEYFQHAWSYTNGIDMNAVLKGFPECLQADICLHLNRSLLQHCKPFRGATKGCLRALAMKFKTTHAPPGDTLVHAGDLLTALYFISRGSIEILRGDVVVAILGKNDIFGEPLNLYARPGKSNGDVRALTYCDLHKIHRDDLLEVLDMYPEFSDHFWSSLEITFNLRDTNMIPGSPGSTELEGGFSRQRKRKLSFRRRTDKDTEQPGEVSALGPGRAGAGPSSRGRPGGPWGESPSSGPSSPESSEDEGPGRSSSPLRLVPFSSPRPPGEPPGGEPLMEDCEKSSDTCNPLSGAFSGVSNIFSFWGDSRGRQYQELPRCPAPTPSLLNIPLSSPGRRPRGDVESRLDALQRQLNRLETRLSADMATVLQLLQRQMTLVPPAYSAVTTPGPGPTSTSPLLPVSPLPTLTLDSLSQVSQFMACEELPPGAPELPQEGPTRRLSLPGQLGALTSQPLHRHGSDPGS
smiles,measurement,setting,value
CS(=O)(=O)n1c2ccccc2c2cc(CN3CCC4(C=Cc5ccccc54)CC3)ccc21,IC50,[1],200 nM
CCn1c2ccccc2c2cc(CN3CCC4(CC3)c3ccccc3[C@H](O)[C@H]4O)ccc21 (racemic),IC50,[1],150 nM
CC(=O)N[C@@H]1CC2(CCN(Cc3ccc4[nH]c5ccc(F)cc5c4c3)CC2)c2ccccc21,IC50,[1],10 nM
CCC(=O)n1c2ccccc2c2cc(CN3CCC4(C=Cc5ccccc54)CC3)ccc21,IC50,[1],100 nM
O[C@H]1Cc2ccccc2C12CCN(Cc1ccc3[nH]c4ccccc4c3c1)CC2,IC50,[1],80 nM
CCn1c2ccccc2c2cc(CN3CCC4(CC3)c3ccccc3CC4NC(C)=O)ccc21 (racemic),IC50,[1],250 nM
CCn1c2ccccc2c2cc(C(=O)N3CCC4(C=Cc5ccccc54)CC3)ccc21,IC50,[1],60000 nM
CCn1c2ccccc2c2cc(CN3CCC4(CC3)c3ccccc3[C@H](NC(C)=O)[C@H]4O)ccc21 (racemic),IC50,[1],100 nM
same,clearance,[2],36.7 mL/min/kg
same,MRT,[3],14.2 h
same,bioavailability,[4],9%
CC(=O)N[C@@H]1CC2(CCN(Cc3ccc4[nH]c5ccc(Br)cc5c4c3)CC2)c2ccccc21,IC50,[1],10 nM
COC(=O)n1c2ccccc2c2cc(CN3CCC4(C=Cc5ccccc54)CC3)ccc21,IC50,[1],300 nM
CC(=O)N[C@@H]1CC2(CCN(Cc3ccc4c(c3)c3ccccc3n4C(N)=O)CC2)c2ccccc21,IC50,[1],1 nM
same,Ki,[5],13 nM
same,Activity,[6],inactive
same,Activity,[7],inactive
same,IC50,[8],1500 nM
same,IC50,[9],10000 nM
same,clearance,[2],16.7 mL/min/kg
same,MRT,[3],18 h
same,bioavailability,[4],37%
same,clearance,[10],10 mL/min/kg
same,MRT,[11],11 h
same,bioavailability,[12],73%
same,clearance,[13],10 mL/min/kg
same,MRT,[14],6.1 h
same,bioavailability,[15],47%
same,Ratio IC50,[16],> 500
same,Ratio IC50,[17],> 500
same,IC50,[18],2000 nM
CCn1c2ccccc2c2cc(CCN3CCC4(C=Cc5ccccc54)CC3)ccc21,IC50,[1],10000 nM
CCn1c2ccccc2c2cc(CN3CCC4(CC3)c3ccccc3[C@H](O)[C@@H]4O)ccc21 (racemic),IC50,[1],250 nM
CC(=O)N[C@@H]1CC2(CCN(Cc3ccc4[nH]c5ccc(C(F)(F)F)cc5c4c3)CC2)c2ccccc21,IC50,[1],678 nM
CC(=O)N[C@H]1CC2(CCN(Cc3ccc4[nH]c5ccccc5c4c3)CC2)c2ccccc21,IC50,[1],13 nM
CN(C)C(=O)n1c2ccccc2c2cc(CN3CCC4(C=Cc5ccccc54)CC3)ccc21,IC50,[1],4 nM
CCn1c2ccccc2c2cc(CN3CCC4(CC3)c3ccccc3CC4O)ccc21 (racemic),IC50,[1],30 nM
CC(=O)N[C@H]1c2ccccc2C2(CCN(Cc3ccc4[nH]c5ccccc5c4c3)CC2)[C@@H]1O (racemic),IC50,[1],8 nM
CCn1c2ccccc2c2cc(CCCN3CCC4(C=Cc5ccccc54)CC3)ccc21,IC50,[1],15000 nM
NC(=O)n1c2ccccc2c2cc(CN3CCC4(C=Cc5ccccc54)CC3)ccc21,IC50,[1],4 nM
CC(=O)n1c2ccccc2c2cc(CN3CCC4(C=Cc5ccccc54)CC3)ccc21,IC50,[1],70 nM
CC(=O)N[C@@H]1CC2(CCN(Cc3ccc4[nH]c5ccc(Cl)cc5c4c3)CC2)c2ccccc21,IC50,[1],1 nM
same,IC50,[8],500 nM
same,IC50,[9],100 nM
same,clearance,[2],13.3 mL/min/kg
same,MRT,[3],9.2 h
same,bioavailability,[4],49%
C1=CC2(CCN(Cc3ccc4[nH]c5ccccc5c4c3)CC2)c2ccccc21,IC50,[1],100 nM
O[C@@H]1Cc2ccccc2C12CCN(Cc1ccc3[nH]c4ccccc4c3c1)CC2,IC50,[1],10 nM
same,clearance,[2],145 mL/min/kg
same,MRT,[3],2.8 h
same,bioavailability,[4],5.9%
CCn1c2ccccc2c2cc(CN3CCC4(C=Cc5ccccc54)CC3)ccc21,IC50,[1],1000 nM
same,IC50,[19],20000 nM
CCn1c2ccccc2c2cc(CN3CCC4(CC3)CC(O)c3ccccc34)ccc21 (racemic),IC50,[1],200 nM
CC(=O)N[C@@H]1CC2(CCN(Cc3ccc4[nH]c5ccccc5c4c3)CC2)c2ccccc21,IC50,[1],0.1 nM
same,clearance,[2],20 mL/min/kg
same,MRT,[3],18.2 h
same,bioavailability,[4],7.5%
CCn1c2ccccc2c2cc(CN3CCC4(CC3)CC(NC(C)=O)c3ccccc34)ccc21 (racemic),IC50,[1],0.1 nM
CCn1c2ccccc2c2cc(NC(=O)N3CCC4(C=Cc5ccccc54)CC3)ccc21,IC50,[1],60000 nM

# Source: ChEMBL document CHEMBL1932960, “Discovery and characterization of a potent and selective antagonist of melanin-concentrating hormone receptor 2” (Bioorg Med Chem Lett, 2012)
